Measured values: PubChem BioAssay AID2060898 (Molecular Pharmacology Branch, DTP, NCI, 2025)

System: 616215-338-R-J1-PDC complex spheroid viability
Experiment: Anticancer human tumor 616215-338-R-J1-PDC patient-derived colon adenocarcinoma cell line growth inhibition [RAS]
Settings: for IC50: curve of first compound; for viability, T/C: stronger effect = lower value
From the text: RAS pathway inhibitors in Combinations in Complex Spheroids
A high-throughput screen of multi-cell type tumor spheroids was designed to identify active combinations of RAS pathway inhibitors and targeted small molecules. Complex spheroids include a stromal component modeled by human endothelial cells (HUVEC) and fibroblasts modeled by human mesenchymal stem cells (MSCs). The concentration ranges selected for each drug and investigational agent were based upon clinically achievable concentrations if the clinical Cmax of the agent was known.
Compounds. The drugs and investigational agents: abemaciclib (NSC768073), cobimetinib (NSC768068), divarasib (GDC6063, NSC841802), docetaxel (NSC628503), GDC-1971 (RLY-1971, NSC841576), gemcitabine (NSC613327), inavolisib (NSC800729), ipatasertib (NSC767898), KB-0742 (NSC834161), MRTX-1133 (NSC836407), osimertinib (NSC779217), RMC-4630 (NSC839698), RMC-6236 (NSC851965), RMC-6291 (NSC852671), Ro-3306 (NSC812927), sapanisertib (NSC764658), SN-38 (NSC673596), staurosporine (NSC755774), SY5609 (NSC837396), and tovorafenib (DAY101, NSC766906), were obtained from the National Cancer Institute (NCI) Developmental Therapeutics Program Chemical Repository. The FDA-approved anticancer drug set is available from the NCI Developmental Therapeutics Program. […] The stock solutions were prepared in dimethyl sulfoxide (DMSO, Sigma-Aldrich, St. Louis, MO, cat. D2650) at 800-fold the tested concentration and stored at -70 degrees C prior to their use. All drugs and investigational agents were tested over a range starting from a high concentration at or near the clinical Cmax and decreasing in half-log increments. If the clinical Cmax for an agent had not been determined, the highest concentration tested was 10 microM.
Cell Culture. All cells were maintained in an incubator at 37 degrees C and 5% CO2 with 95% humidity. The PDC lines were cultured according to standard operating procedures established by the NCI PDMR. All PDCs were thawed and cultured in Matrigel-coated flasks prepared with a working solution of 1X Ham's F-12 nutrient mix, without supplementation (Invitrogen, Waltham, MA, cat. 11765054), 100 U/mL penicillin-streptomycin (Invitrogen, cat. 15140122), and 2.5% Matrigel (Corning Inc., Corning, NY, cat. 354248) for the first three passages. The 362531-283-R-J2-PDC and 782815-120-R-J1-PDC lines were cultured in 6C/Colon 1B media, which includes advanced DMEM/F-12 (Thermo Fisher Scientific, cat. 12634028), 10 mM HEPES (Thermo Fisher Scientific, cat. 15630080), 1X GlutaMAX supplement (Thermo Fisher Scientific, cat. 35050061), 0.1 mg/mL primocin (InvivoGen, San Diego, CA, cat. ant-pm-2), 10% defined fetal bovine serum, heat inactivated (HyClone Laboratories Inc., Logan, UT, cat. SH30070.03HI), 50% L-WRN conditioned media (ATCC, cat. CRL-3276), 1.25 mM N-Acetyl-L-cysteine (Sigma-Aldrich, cat. A9165), 10 mM nicotinamide (Sigma-Aldrich, cat. N0636), 1X B-27 supplement (Thermo Fisher Scientific, cat. 17504044), 1X N-2 supplement (Thermo Fisher Scientific, cat. 17502048), 50 ng/mL human EGF (Thermo Fisher Scientific, cat. PHG0311), and 10 microM Y-27632 dihydrochloride (Tocris Bioscience, cat. 1254). The K12877-001-R-J1-PDC line was cultured in 6I media, which includes all 6C/Colon 1B media plus 10 ng/mL human FGF-10 (PeproTech, cat. 100-26), 1 ng/mL human FGF-2 (PeproTech, cat. 100-18B), 1 µM prostaglandin E2 (Tocris Bioscience, cat. 2296), […] hydrocortisone (Sigma-Aldrich, cat. H4001), and […] bovine insulin (Sigma-Aldrich, cat. I6634). The K86415-001-R-J1-PDC line was cultured in 6D media, which includes all 6C/Colon 1B media components minus the L-WRN conditioned media. The 485176-168-R4-J1-PDC was cultured in PANC media, which includes all 6C/Colon 1B media plus 100 ng/mL human FGF-10 (PeproTech, cat. 100-26), 500 nM SB-431542 (Selleckchem, cat. S1067), and 10 nM gastrin (Tocris Bioscience, cat. 3006). […]

[1] = second compound 0.0316 µM, first compound 0.0316 µM
[2] = second compound 0.0316 µM, first compound 0.1 µM
[3] = second compound 0.0316 µM, first compound 0.316 µM
[4] = second compound 0.0316 µM, first compound 1 µM
[5] = second compound 0.1 µM, first compound 0.0316 µM
[6] = second compound 0.1 µM, first compound 0.1 µM
[7] = second compound 0.1 µM, first compound 0.316 µM
[8] = second compound 0.1 µM, first compound 1 µM
[9] = second compound 0.316 µM, first compound 0.0316 µM
[10] = second compound 0.316 µM, first compound 0.1 µM
[11] = second compound 0.316 µM, first compound 0.316 µM
[12] = second compound 0.316 µM, first compound 1 µM
[13] = second compound 1 µM, first compound 0.0316 µM
[14] = second compound 1 µM, first compound 0.1 µM
[15] = second compound 1 µM, first compound 0.316 µM
[16] = second compound 1 µM, first compound 1 µM
[17] = second compound 3.16 µM, first compound 0.0316 µM
[18] = second compound 3.16 µM, first compound 0.1 µM
[19] = second compound 3.16 µM, first compound 0.316 µM
[20] = second compound 3.16 µM, first compound 1 µM
[21] = second compound 10 µM, first compound 0.0316 µM
[22] = second compound 10 µM, first compound 0.1 µM
[23] = second compound 10 µM, first compound 0.316 µM
[24] = second compound 10 µM, first compound 1 µM
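Also: spheroids exposed to agents for seven days before viability readout.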
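For viability, T/C in this document: 100% = DMSO vehicle control viability.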

CCN1CCN(Cc2ccc(Nc3ncc(F)c(-c4cc(F)c5nc(C)n(C(C)C)c5c4)n3)nc2)CC1 + C#Cc1c(F)ccc2cc(O)cc(-c3ncc4c(N5CC6CCC(C5)N6)nc(OCC56CCCN5CC(F)C6)nc4c3F)c12
IC50 (second compound 0.0316 µM): > 1000 nM
IC50 (second compound 0.1 µM): > 1000 nM
IC50 (second compound 0.316 µM): 874 nM
IC50 (second compound 1 µM): 693 nM
IC50 (second compound 3.16 µM): 175 nM
IC50 (second compound 10 µM): 30.9 nM
viability, T/C (second compound 0.0316 µM, first compound 0.00316 µM): 96.4%
viability, T/C (second compound 0.0316 µM, first compound 0.01 µM): 117%
viability, T/C [1]: 120%
viability, T/C [2]: 108%
viability, T/C [3]: 131%
viability, T/C [4]: 53.2%
viability, T/C (second compound 0.1 µM, first compound 0.00316 µM): 97.9%
viability, T/C (second compound 0.1 µM, first compound 0.01 µM): 110%
viability, T/C [5]: 113%
viability, T/C [6]: 124%
viability, T/C [7]: 129%
viability, T/C [8]: 50.8%
viability, T/C (second compound 0.316 µM, first compound 0.00316 µM): 105%
viability, T/C (second compound 0.316 µM, first compound 0.01 µM): 110%
viability, T/C [9]: 121%
viability, T/C [10]: 120%
viability, T/C [11]: 112%
viability, T/C [12]: 41.7%
viability, T/C (second compound 1 µM, first compound 0.00316 µM): 120%
viability, T/C (second compound 1 µM, first compound 0.01 µM): 118%
viability, T/C [13]: 130%
viability, T/C [14]: 88%
viability, T/C [15]: 74.2%
viability, T/C [16]: 39.7%
viability, T/C (second compound 3.16 µM, first compound 0.00316 µM): 90.8%
viability, T/C (second compound 3.16 µM, first compound 0.01 µM): 98.1%
viability, T/C [17]: 70%
viability, T/C [18]: 58.2%
viability, T/C [19]: 44.6%
viability, T/C [20]: 30.9%
viability, T/C (second compound 10 µM, first compound 0.00316 µM): 76.1%
viability, T/C (second compound 10 µM, first compound 0.01 µM): 58.5%
viability, T/C [21]: 51.9%
viability, T/C [22]: 35.5%
viability, T/C [23]: 39.3%
viability, T/C [24]: 23.9%

C[C@@H](NC(=O)c1ncnc(N)c1Cl)c1ncc(C(=O)Nc2cc(C(F)(F)F)c(Cl)cn2)s1 + C#Cc1c(F)ccc2cc(O)cc(-c3ncc4c(N5CC6CCC(C5)N6)nc(OCC56CCCN5CC(F)C6)nc4c3F)c12
IC50 (second compound 0.0316 µM): > 10000 nM
IC50 (second compound 0.1 µM): > 10000 nM
IC50 (second compound 0.316 µM): 9710 nM
IC50 (second compound 1 µM): 5990 nM
IC50 (second compound 3.16 µM): 3610 nM
IC50 (second compound 10 µM): 758 nM
viability, T/C [1]: 120%
viability, T/C [2]: 109%
viability, T/C [3]: 109%
viability, T/C [4]: 109%
viability, T/C (second compound 0.0316 µM, first compound 3.16 µM): 86.8%
viability, T/C (second compound 0.0316 µM, first compound 10 µM): 55.2%
viability, T/C [5]: 104%
viability, T/C [6]: 111%
viability, T/C [7]: 108%
viability, T/C [8]: 109%
viability, T/C (second compound 0.1 µM, first compound 3.16 µM): 90.8%
viability, T/C (second compound 0.1 µM, first compound 10 µM): 52.2%
viability, T/C [9]: 111%
viability, T/C [10]: 113%
viability, T/C [11]: 121%
viability, T/C [12]: 117%
viability, T/C (second compound 0.316 µM, first compound 3.16 µM): 87.9%
viability, T/C (second compound 0.316 µM, first compound 10 µM): 49%
viability, T/C [13]: 109%
viability, T/C [14]: 112%
viability, T/C [15]: 108%
viability, T/C [16]: 91.5%
viability, T/C (second compound 1 µM, first compound 3.16 µM): 68.3%
viability, T/C (second compound 1 µM, first compound 10 µM): 35.8%
viability, T/C [17]: 99.3%
viability, T/C [18]: 111%
viability, T/C [19]: 72.3%
viability, T/C [20]: 82.2%
viability, T/C (second compound 3.16 µM, first compound 3.16 µM): 52.2%
viability, T/C (second compound 3.16 µM, first compound 10 µM): 24.3%
viability, T/C [21]: 84.3%
viability, T/C [22]: 69.7%
viability, T/C [23]: 67.2%
viability, T/C [24]: 46.4%
viability, T/C (second compound 10 µM, first compound 3.16 µM): 24.8%
viability, T/C (second compound 10 µM, first compound 10 µM): 18.7%
